Reference: US8282909B2, “Pharmaceutical composition for topical application of poorly soluble compounds” (Intendis GmbH, priority 2007, dated 2012)

Test: Solubility of the active substance in solvents and vehicles
Assay type: physicochemical
Text: Topically administered active substances are mainly used to treat the redness, swelling, itching and discomfort of psoriasis, atopic dermatitis and other pathologies of the skin. […] Glucocorticosteroids, steroids, calcineurin inhibitors, vitamin D analoques, retinoids, immunosuppressants, antimycotics, antiinfectives, estrogens, androgens, fumaric acid esters are typical drug classes for topical administration with such low water solubility. Other examples for such poorly soluble compounds are provided e.g. in WO 03/082827 or WO 2006/050998. One example is the non-steroidal active substance having the chemical name (R)-1,1,1-Trifluoro-4-(5-fluoro-2,3-dihydrobenzofuran-7-yl)-4-methyl-2-{[(2-methyl-5-quinolyl)amino]methyl}pentan-2-ol, the empirical formula of which is C25H26F4N2O2, having a molecular weight of 462.5. This is the compound according to example 1 of WO 2006/050998 (hereinafter Ex1/998).

Cc1ccc2c(NC[C@](O)(CC(C)(C)c3cc(F)cc4c3OCC4)C(F)(F)F)cccc2n1 [Ex1/998, (R)-1,1,1-Trifluoro-4-(5-fluoro-2,3-dihydrobenzofuran-7-yl)-4-methyl-2-{[(2-methyl-5-quinolyl)amino]methyl}pentan-2-ol]
solubility in ethyl alcohol (ethyl alcohol): moderately soluble | solubility in hexane (hexane): only slightly soluble | solubility in standard cream and ointment vehicles (vehicles for topical administration, such as petrolatum and mineral oils): very poor solubility | solubility in water (water): insoluble
